Measurements: US12527776B2, “Treatment of ciliopathies using inhibitors of glucosylceramide synthase (GCS)” (GENZYME CORPORATION, priority 2019, dated 2026)

Columns and labels:
[1] = system: Bbs2−/− mice adipose tissue; assay: RNA sequencing of adipose tissue of Bbs2−/− mice; format: in vivo, mouse; conditions: 0.033% w/w in feed from 1 to 6 months of age
Method: Total RNA was isolated from previously flash frozen adipose tissue dissected from four six-month old Wt (Wt #1-4), Bbs2^−/− (Bbs #1-4) or Bbs2^−/− treated with 0.033% w/w of Compound 1 (Bbs+Cmpd1 #1-4) in feed from 1 to 6 months of age using TRIzol (Thermo Fisher Scientific) and chloroform extractions. RNA samples were further purified with RNAeasy Mini Kit (Qiagen) to remove genomic DNA. The concentration and purity of RNA was assessed with a NanoDrop 8000 microspectrophotometer (Thermo Fisher Scientific). RNA integrity was then evaluated with a 4200 TapeStation System (Agilent Technologies).
The sequencing libraries were generated using the TruSeq Stranded mRNA Library Prep Kit as per the manufacturer recommendations (Illumina). Sequencing was performed using High Output NextSeq 500/550 v2.5 kits on an Illumina NextSeq 500 platform (2×75 bp paired-end reads).
Data analysis was performed with Array Studio V10.1 (Omicsoft Corporation, a Qiagen company) and mapped to Genome Reference Consortium Mouse Build 38. Heatmaps are generated using a Center Scale normalization algorithm on median normalized Log 2 expression values as per the software developer (Omicsoft).

[2] = system: Bbs2−/− immortalized kidney epithelial cells; assay: Cell culture and primary cilium staining (cilia length, GSL localization); format: cell-based, mouse; conditions: serum free, compound for 6-24 hours
Method: Cell Culture and Primary Cilium Staining
Wild type and Bbs2^−/− kidney epithelium cell lines were established and maintained as described previously (See Natoli T et al., Nat Med, 16:788-792 (2010); and Humes H D. et al., Am J Kidney Dis, 39:1078-1087(2002)). Cells were cultured on collagen I coated glass slides in DMEM containing 1% penicillin/streptomycin, 10% FBS. To determine the effect of compounds on cilia and lipid localization, cells were cultured in serum free media for 24 hours followed by the addition of Compound 1 for 6-24 hours. Cells were then fixed with 4% paraformaldehyde followed by immunofluorescence with anti-GM3 (Creative Biolabs), anti-ceramide (Sigma Aldrich), anti-GM1 (Invitrogen), and anti-acetylated tubulin (Cell Signaling) antibodies. Cilia length was quantified using Metamorph software.

Bbs2−/− mice [3] = assay: Olfaction (buried treat test) and main olfactory epithelium immunofluorescence in Bbs2−/− mice; format: in vivo, mouse; conditions: feed from 1 to 6 months of age
Source text: (§1) A Bbs2^−/− mouse model has been described by Nishimura D Y et al. (Proc Natl Acad Sci, 101:16588-16593 (2004)) with exons 5-14 of Bbs2 replaced with a neomycin cassette. Mice were backcrossed into 129/SvJ background. Treated Bbs2^−/− mice were fed ad libitum with 0.033% w/w of Compound 1 incorporated in feed from the age of 1 month to 6 months. Bbs2^−/− and Wt control animals were fed regular 5053 chow (LabDiet). To establish metabolic disease, Bbs2^−/− mice were left untreated until four-months of age, and then treated with Compound 1 incorporated into feed for the fifth and sixth months.
Animal olfaction was tested using a protocol adapted from Yang M. et al. (Curr Protoc Neurosci, DOI:10.1002/0471142301.ns0824s48 (2009)). Before testing, animals were acclimatised for three days and then fasted for 18 hours in cage with Alpha Dri bedding. Treat (Bioserv Supreme Mini-Treats, Chocolate flavor) was buried 1 cm deep in a clean cage with 3 cm deep bedding. Animals were placed in cage and time was recorded when treat was found and bitten into.
Paraffin-embedded samples of nasal cavities from Wt and Bbs2^−/− mice were prepared and analysed as described supra. The primary antibodies used were acetylated tubulin (Cell Signaling Technology), cytokeratin 14 (Protein Tech), SRY-Box 2 (Cell Signaling Technology), doublecortin (Cell Signaling Technology), and olfactory marker protein (Wako).

Bbs2−/− mice [4] = assay: Retinal degeneration in Bbs2−/− mice (OCT, immunofluorescence); format: in vivo, mouse; conditions: treatment for 5 months from one month of age
Source text: as §1
A non-invasive imaging technique, optical coherence tomography (OCT) using the Bioptigen Envisu R2200 instrument, was used to generate a cross-sectional image of the retina with 2 micron resolution to measure the thickness of the retinal cell layers in vivo.
Paraffin-embedded samples of eyes from Wt and Bbs2^−/− mice were prepared and analysed as described supra. The primary antibodies used were rhodopsin (Thermo Scientific) and cone arrestin (EMD Millipore).

SMILES: CC(C)(NC(=O)OC1CN2CCC1CC2)c1cccc(-c2ccc(F)cc2)c1 (stereo not drawn) [Compound 1, 1-azabicyclo[2.2.2]oct-3-yl [2-(4′-fluorobiphenyl-3-yl)propan-2-yl]carbamate]
- expression of genes in adipogenesis, ciliogenesis and sphingolipid homeostasis pathways [1]: normalizes the expression of genes
- GM3 localization [2]: restores GM3 localization similar to what is observed in Wt cells
- cilia length [2]: elongates cilia
- adenylate cyclase III (ACIII) in the MOE (Bbs2−/− mice [3]): increase in ACIII
- cilia in the MOE (acetylated tubulin) (Bbs2−/− mice [3]): preservation/restoration of the cilia in the MOE
- differentiation in MOE (immature vs mature neurons) (Bbs2−/− mice [3]): correction of this phenotype to resemble that of wild type animals
- olfaction defect (time to find a buried treat) (Bbs2−/− mice [3]): restored
- increase in the thickness of the ONL (Bbs2−/− mice [4]): ~2 fold
- rod-cone specific staining (rhodopsin, cone arrestin) (Bbs2−/− mice [4]): partial restoration/preservation of rod-cone specific staining
